Assay results reported in US20250099407A1, “2-AMINO BENZOPHENONE DERIVATIVES FOR TARGETED FERROPTOSIS INDUCTION IN CANCER THERAPY” (INDIAN INSTITUTE OF TECHNOLOGY KANPUR, priority 2023, published 2025).
Like-named read-outs stand apart in the source and are kept apart here.

What was measured:
U2OS = experiment: Cell viability, CellTiter-Glo assay, U2OS; format: cell-based; conditions: Homo sapiens
Procedure: (§1) The viability of screened cancer cells was recorded using a luminescence-based CellTiter-Glo® assay for the ATP quantification. The screening concentration of the molecule ranged from 100/10 μM to 45/4.5 nM with an 8-point-3-fold dilution series in DMEM media (>0.1% DMSO as control). Each experiment was conducted in more than two biological replicates with three technical replicates. The error bar is a representation of standard deviation among the technical replicates.
as §1, with “IITK3002” for “the molecule”, “10” for “100/10”, “4.5” for “45/4.5”
a. […] In parallel, we have also synthesized the bromoacetamide (IITK3002) version of the lead molecules which is slightly more reactive with thiol nucleophiles when compared to chlorooacetamide warheads as depicted in FIG. 13. […] In addition, we also evaluated the molecules' antiproliferative potency against a panel of twelve different cancer phenotypes. The set of cancer cell lines included liver, breast, colon, myeloma, bone, blood, skin, brain and prostate lineages (FIG. 2, 3, Table 1).

A549 = experiment: Cell viability, A549; format: cell-based; conditions: Homo sapiens
Huh-7 cells = experiment: Cell viability, luminescence-based CellTiter-Glo assay, Huh-7 cells; conditions: Homo sapiens, Huh-7, Huh-7 cells
Procedure: The viability of Huh-7 cells was recorded using a luminescence-based CellTiter-Glo® assay. The screening concentration of the molecules were 10 μM with or without Fer-1 (10 μM) in DMEM media (>0.1% DMSO as control).
Ferroptosis is a unique form of cell death mechanism mediated by the accumulation of lipid peroxides in cells which is distinct from healthy cells' apoptosis, a programmed […] route. We aimed to exploit the induction of ferroptosis in cancer cells using covalent small molecules as a potential strategy for cancer therapeutic development. […] We used various amide bond formation chemistry to construct the library members and these molecules are well characterized by various spectroscopic and mass spectrometry techniques. Once confirmed, these thiol reactive library members were screened in a cancer cell viability assay in combination with ferrostatin-1 (Fer-1), a ferroptosis inhibitor as depicted in FIG. 11. […] We have screened a total of ˜50 electrophilic small molecules to prevent the proliferation of hepatocellular carcinoma (Huh-7 cells) in combination with and without Fer-1. From our initial screening, we identified haloacetamides of 2-aminoalkylbenzophenone as potential ferroptosis inducers as depicted in FIG. 11.
as §1
The viability of screened cancer cells was recorded using a luminescence-based CellTiter-Glo® assay for the ATP quantification. The screening concentration of IITK3002 ranged from 10 μM to 4.5 nM with an 8-point-3-fold dilution series in DMEM media (>0.1% DMSO as control). Each experiment was conducted in more than two biological replicates with three technical replicates. The error bar is a representation of standard deviation among the technical replicates. […]
a. Electrophilic Warhead Optimization: Once we identified 2-benzoylphenyl-a-haloacetamide as the lead scaffold, we have investigated the structure-activity-relationship analysis to precisely capture the effect of various chemical handles of the scaffold and use the knowledge to improve the overall potency and selectivity of this molecule to prevent cancer cell proliferation. First, we changed the haloacetamide electrophilic unit with various other electrophiles with a characteristic high, moderate, and weak reactivity with thiols when compared to chloroacetamide. Therefore, we opted vinylsulfonamide (highly reactivity), acrylamide (moderate reactivity), and phenoxyacetamides (weak reactivity warheads) for incorporation in the place of haloacetamide warhead of the top hit scaffold. Once synthesized, these molecules were evaluated to assess their antiproliferative potency against Huh-7 cells (Table 2). As expected, the introduction of weakly reactive electrophilic warheads, phenoxyactamides, completely lost the activity against Huh-7 cells. […] Perhaps, the secondary interactions of the electrophilic warhead with the target proteins might play additional roles. Therefore, we shifted our focus to optimize the rest of the core scaffold for further SAR analysis. b. Role of N-Substitutions: Next, we synthesized the NH-derivative of haloacetamides to capture the importance of N-alkylation on the activity of our hit molecule. […] Perhaps the hydrogen bonding induced planarity around the warhead influences the molecules' weakened potency. Conversely, the additional flexibility in the lead molecule (tertiary amide) might contribute to the strong antiproliferative activity of the hit molecule. […]

[1] = cell viability, read-out: EC50 Huh-7

| SMILES | EC50 (Huh-7 cells; [1]) [nM] | also measured |
| --- | --- | --- |
| C=CCN(C(=O)COc1c(F)c(F)c(F)c(F)c1F)c1ccccc1C(=O)c1ccccc1 [IITK3022, N-allyl-N-(2-benzoylphenyl)-2-(perfluorophenoxy)acetamide] | – | EC50 (U2OS): 1450 nM; EC50 (A549): 3370 nM |
| CN(C(=O)COc1c(F)c(F)c(F)c(F)c1F)c1ccccc1C(=O)c1ccccc1 [IITK3007, N-(2-benzoylphenyl)-N-methyl-2-(perfluorophenoxy)acetamide] | > 20000 | – |
| C=CCN(C(=O)CCl)c1ccccc1C(=O)c1ccccc1 [IITK3018, N-allyl-N-(2-benzoylphenyl)-2-chloroacetamide] | – | EC50 (U2OS): 600 nM; EC50 (A549): 2400 nM |
| CN(C(=O)CBr)c1ccccc1C(=O)c1ccc(-c2ccc(C=O)cc2)cc1 [IITK3059, 2-bromo-N-(2-(4′-formyl-[1,1′-biphenyl]-4-carbonyl)phenyl)-N-methylacetamide] | 79 | – |
| CN(C(=O)CCl)c1ccccc1C(=O)c1ccc(-c2ccc(C#N)cc2)cc1 [IITK3060, 2-chloro-N-(2-(4′-cyano-[1,1′-biphenyl]-4-carbonyl)phenyl)-N-methylacetamide] | 26 | – |
| CN(C(=O)CCl)c1ccccc1C(=O)c1ccc(-c2ccc(C=O)cc2)cc1 [IITK3058, 2-chloro-N-(2-(4′-formyl-[1,1′-biphenyl]-4-carbonyl)phenyl)-N-methylacetamide] | 117 | – |
| CN(C(=O)CCl)c1ccc([N+](=O)[O-])cc1C(=O)c1ccccc1 [IITK3073, N-(2-benzoyl-4-nitrophenyl)-2-chloro-N-methylacetamide] | > 20000 | – |
| CN(C(=O)CCl)c1ccccc1C(=O)c1ccc(-c2cccc(Oc3ccccc3)c2)cc1 [IITK3062, 2-chloro-N-methyl-N-(2-(3′-phenoxy-[1,1′-biphenyl]-4-carbonyl)phenyl)acetamide] | 36 | – |
| Cc1ccc(-c2ccc(C(=O)c3ccccc3N(C)C(=O)CBr)cc2)cc1 [IITK3057, 2-bromo-N-methyl-N-(2-(4′-methyl-[1,1′-biphenyl]-4-carbonyl)phenyl)acetamide] | 18 | – |
| C=CCN(c1ccccc1C(=O)c1ccccc1)S(=O)(=O)C=C [IITK3027, N-allyl-N-(2-benzoylphenyl)ethenesulfonamide] | – | EC50 (U2OS): 1220 nM; EC50 (A549): 1920 nM |
| C=CCN(C(=O)C=C)c1ccccc1C(=O)c1ccccc1 [IITK3026, N-allyl-N-(2-benzoylphenyl)acrylamide] | – | EC50 (A549): 32800 nM |
| C=CCN(C(=O)CBr)c1ccccc1C(=O)c1ccccc1 [IITK3019, N-allyl-N-(2-benzoylphenyl)-2-bromoacetamide] | – | EC50 (U2OS): 30 nM; EC50 (A549): 300 nM |
| O=C(CBr)Nc1ccccc1C(=O)c1ccccc1 [IITK3013, N-(2-benzoylphenyl)-2-bromoacetamide] | – | EC50 (U2OS): 1520 nM |
| CN(C(=O)CBr)c1ccccc1C(=O)c1ccc(-c2ccc(C#N)cc2)cc1 [IITK3061, 2-bromo-N-(2-(4′-cyano-[1,1′-biphenyl]-4-carbonyl)phenyl)-N-methylacetamide] | 4820 | – |
| CN(C(=O)CCl)c1ccccc1C(=O)c1ccc(-c2ccccc2)cc1 [IITK3055, N-(2-([1,1′-biphenyl]-4-carbonyl)phenyl)-2-chloro-N-methylacetamide] | 2 | EC50 (Huh-7 cells; antiproliferative activity, read-out: EC50 in Huh-7 cells): 2 nM |
| C#CCOC(=O)Nc1ccc(N(C)C(=O)CCl)c(C(=O)c2ccccc2)c1 [IITK3052, prop-2-yn-1-yl (3-benzoyl-4-(2-chloro-N-methylacetamido)phenyl)carbamate] | 32800 | EC50 (U2OS): 2920 nM; EC50 (A549): 4180 nM |
| C#CCOC(=O)Nc1ccc(N(C)C(=O)CBr)c(C(=O)c2ccccc2)c1 [IITK3053, prop-2-yn-1-yl (3-benzoyl-4-(2-bromo-N-methylacetamido)phenyl)carbamate] | 11700 | EC50 (U2OS): 770 nM; EC50 (A549): 1540 nM |
| CN(C(=O)CBr)c1ccccc1C(=O)c1ccc(-c2ccccc2)cc1 [IITK3056, N-(2-([1,1′-biphenyl]-4-carbonyl)phenyl)-2-bromo-N-methylacetamide] | 13 | – |
| C#CCN(C(=O)COc1c(F)c(F)c(F)c(F)c1F)c1ccccc1C(=O)c1ccccc1 [IITK3031, N-(2-benzoylphenyl)-2-(perfluorophenoxy)-N-(prop-2-yn-1-yl)acetamide] | > 20000 | – |
| C#CCN(C(=O)COc1ccc(C(C)(C)C)cc1)c1ccccc1C(=O)c1ccccc1 [IITK3032, N-(2-benzoylphenyl)-2-(4-(tert-butyl)phenoxy)-N-(prop-2-yn-1-yl)acetamide] | > 20000 | – |
| O=C(COc1ccccc1)Nc1ccccc1C(=O)c1ccccc1 [IITK3014, N-(2-benzoylphenyl)-2-phenoxyacetamide] | > 20000 | EC50 (U2OS): > 20000 nM |
| C=CCN(C(=O)COc1ccc([N+](=O)[O-])cc1)c1ccccc1C(=O)c1ccccc1 [IITK3025, N-allyl-N-(2-benzoylphenyl)-2-(4-nitrophenoxy)acetamide] | > 100000 | – |

Further lines, with some results ahead:

| EC50 (Huh-7 cells; [1]) [nM] | SMILES | also measured |
| --- | --- | --- |
| 16 | COc1ccc(-c2ccc(C(=O)c3ccccc3N(C)C(=O)CBr)cc2)cc1 [IITK3065, 2-bromo-N-(2-(4′-methoxy-[1,1′-biphenyl]-4-carbonyl)phenyl)-N-methylacetamide] | – |
| 8.83 | CN(C(=O)CCl)c1ccccc1C(=O)c1ccc(-c2ccc(F)cc2F)cc1 [IITK3066, 2-chloro-N-(2-(2′,4′-difluoro-[1,1′-biphenyl]-4-carbonyl)phenyl)-N-methylacetamide] | – |
| 3.06 | CN(C(=O)CCl)c1ccccc1C(=O)c1ccc(-c2cccc([N+](=O)[O-])c2)cc1 [IITK3068, 2-chloro-N-methyl-N-(2-(3′-nitro-[1,1′-biphenyl]-4-carbonyl)phenyl)acetamide] | – |
| 3.5 | CN(C(=O)CBr)c1ccccc1C(=O)c1ccc(-c2cccc([N+](=O)[O-])c2)cc1 [IITK3069, 2-bromo-N-methyl-N-(2-(3′-nitro-[1,1′-biphenyl]-4-carbonyl)phenyl)acetamide] | – |
| 12.1 | CN(C(=O)CBr)c1ccccc1C(=O)c1ccc(-c2ccc(F)cc2F)cc1 [IITK3067, 2-bromo-N-(2-(2′,4′-difluoro-[1,1′-biphenyl]-4-carbonyl)phenyl)-N-methylacetamide] | – |
| < 100 | C#CCN(C(=O)CBr)c1ccccc1C(=O)c1ccc(-c2ccccc2)cc1 [IITK3071, N-(2-([1,1′-biphenyl]-4-carbonyl)phenyl)-2-bromo-N-(prop-2-yn-1-yl)acetamide] | – |
| 24.5 | CN(C(=O)CBr)c1ccccc1C(=O)c1ccc(-c2cccc(Oc3ccccc3)c2)cc1 [IITK3063, 2-bromo-N-methyl-N-(2-(3′-phenoxy-[1,1′-biphenyl]-4-carbonyl)phenyl)acetamide] | – |
| 8220 | C=CS(=O)(=O)N(C)c1ccccc1C(=O)c1ccc(-c2ccccc2)cc1 [IITK3070, N-(2-([1,1′-biphenyl]-4-carbonyl)phenyl)-N-methylethenesulfonamide] | – |
| > 138 | C#CCN(C(=O)CCl)c1ccccc1C(=O)c1ccc(-c2ccccc2)cc1 [IITK3072, N-(2-([1,1′-biphenyl]-4-carbonyl)phenyl)-2-chloro-N-(prop-2-yn-1-yl)acetamide] | – |
| 19 | COc1ccc(-c2ccc(C(=O)c3ccccc3N(C)C(=O)CCl)cc2)cc1 [IITK3064, 2-chloro-N-(2-(4′-methoxy-[1,1′-biphenyl]-4-carbonyl)phenyl)-N-methylacetamide] | – |
